Experimental data from ChEMBL document CHEMBL1144567, “Linker-modified triamine-linked acridine dimers: synthesis and cytotoxicity properties in vitro and in vivo” (Bioorg Med Chem, 2007).

Legend:
COLO 205 [1] = assay: Cytotoxicity against human COLO205 cells after 72 hrs by MTT assay; format: cell-based; conditions: COLO 205, 72 h
[2] = Cytotoxicity against human HA22T cells after 72 hrs by MTT assay; format: cell-based
[3] = Cytotoxicity against SKBR3 cells after 72 hrs by MTT assay; format: cell-based; conditions: Homo sapiens, SK-BR-3, 72 h
MOLT-4 = assay: Cytotoxicity against MOLT4 cells after 72 hrs by MTT assay; conditions: Homo sapiens, MOLT-4, 72 h
Nucleic Acid = assay: Binding affinity to Escherichia coli JM83 pUC19 DNA assessed as DNA intercalation assay; format: nucleic-acid assay
[4] = Toxicity in ICR mouse; format: organism-based; conditions: in vivo
COLO 205 [5] = assay: Antitumor activity against human COLO205 cells implanted in SCID mouse at 22.5 mg/kg injected into tail vein; format: functional; conditions: read-out: TGI
COLO 205 [6] = assay: Antitumor activity against human COLO205 cells implanted in SCID mouse at 10 mg/kg injected into tail vein; format: functional; conditions: read-out: TGI

## CCCN(CCCNc1c2ccc(Cl)cc2nc2ccc(OC)cc12)CCCNc1c2ccc(Cl)cc2nc2ccc(OC)cc12
COLO 205 [1]
  IC50: 1460 nM
[2]
  IC50: 5980 nM
[3]
  IC50: 5780 nM
MOLT-4
  IC50: < 20 nM
Nucleic Acid
  SC50: 2 µM

## COc1ccc2nc3cc(Cl)ccc3c(NCCCN(CCCNc3c4ccc(Cl)cc4nc4ccc(OC)cc34)Cc3ccc(Br)s3)c2c1
COLO 205 [1]
  IC50: 850 nM
[2]
  IC50: 1150 nM
[3]
  IC50: 5800 nM
MOLT-4
  IC50: < 10 nM
Nucleic Acid
  SC50: > 20 µM

## COc1ccc2nc3cc(Cl)ccc3c(NCCCN(CCCNc3c4ccc(Cl)cc4nc4ccc(OC)cc34)Cc3ccc(F)cc3F)c2c1
COLO 205 [1]
  IC50: 770 nM
[2]
  IC50: 230 nM
[3]
  IC50: 780 nM
MOLT-4
  IC50: < 10 nM

## COc1cccc2c1C(=O)c1c(O)c3c(c(O)c1C2=O)C[C@@](O)(C(=O)CO)C[C@@H]3O[C@H]1C[C@H](N)[C@H](O)[C@H](C)O1 [DOXORUBICIN]
COLO 205 [1]
  IC50: 260 nM
[2]
  IC50: 310 nM
[3]
  IC50: 290 nM
Nucleic Acid
  SC50: 10 µM

## COc1ccc2nc3cc(Cl)ccc3c(NCCCN(CCCNc3c4ccc(Cl)cc4nc4ccc(OC)cc34)Cc3sccc3C)c2c1
COLO 205 [1]
  IC50: 10 nM
[2]
  IC50: 60 nM
[3]
  IC50: 70 nM
MOLT-4
  IC50: < 10 nM
Nucleic Acid
  SC50: 2 µM

## COc1ccc2nc3cc(Cl)ccc3c(NCCCCN(CCCNc3c4ccc(Cl)cc4nc4ccc(OC)cc34)CC3CC3)c2c1
COLO 205 [1]
  IC50: 10 nM
[2]
  IC50: 510 nM
[3]
  IC50: 720 nM
MOLT-4
  IC50: < 10 nM
Nucleic Acid
  SC50: 2 µM

## COc1ccc2nc3cc(Cl)ccc3c(NCCCN(CCCNc3c4ccc(Cl)cc4nc4ccc(OC)cc34)Cc3ccc(Cl)cc3)c2c1
COLO 205 [1]
  IC50: 200 nM
[2]
  IC50: 580 nM
[3]
  IC50: 530 nM
MOLT-4
  IC50: < 10 nM

## COc1ccc2nc3cc(Cl)ccc3c(NCCCN(C)CCCNc3c4ccc(Cl)cc4nc4ccc(OC)cc34)c2c1
[4]
  MTD: 22.5 mg/kg
COLO 205 [1]
  IC50: 160 nM
[2]
  IC50: 620 nM
[3]
  IC50: 700 nM
MOLT-4
  IC50: < 20 nM
COLO 205 [5]
  inhibition in vivo at 22.5 mg/kg: 2%

## COc1ccc2nc3cc(Cl)ccc3c(NCCCN(CCCNc3c4ccc(Cl)cc4nc4ccc(OC)cc34)Cc3ccccn3)c2c1
COLO 205 [6]
  inhibition in vivo at 10 mg/kg: 0%
[4]
  MTD: 10 mg/kg
COLO 205 [1]
  IC50: 10 nM
[2]
  IC50: 3970 nM
[3]
  IC50: 720 nM
MOLT-4
  IC50: < 10 nM
Nucleic Acid
  SC50: 2 µM

## COc1ccc2nc3cc(Cl)ccc3c(NCCCN(CCCNc3c4ccc(Cl)cc4nc4ccc(OC)cc34)CC3CC3)c2c1
COLO 205 [1]
  IC50: 1270 nM
[2]
  IC50: 480 nM
[3]
  IC50: 820 nM
MOLT-4
  IC50: < 10 nM
Nucleic Acid
  SC50: 2 µM

## COc1ccc2nc3cc(Cl)ccc3c(NCCCN(CCCNc3c4ccc(Cl)cc4nc4ccc(OC)cc34)CC(O)CO)c2c1 (stereo not drawn)
COLO 205 [1]
  IC50: 130 nM
[2]
  IC50: 1720 nM
[3]
  IC50: 1290 nM
MOLT-4
  IC50: < 10 nM

## COc1ccc2nc3cc(Cl)ccc3c(NCCCN(CCCNc3c4ccc(Cl)cc4nc4ccc(OC)cc34)Cc3cc(Br)cs3)c2c1
COLO 205 [1]
  IC50: 720 nM
[2]
  IC50: 840 nM
[3]
  IC50: 700 nM
MOLT-4
  IC50: 60 nM

## COc1ccc2nc3cc(Cl)ccc3c(NCCCN(CCCNc3c4ccc(Cl)cc4nc4ccc(OC)cc34)Cc3cccnc3)c2c1
COLO 205 [1]
  IC50: 500 nM
[2]
  IC50: 740 nM
[3]
  IC50: 640 nM
MOLT-4
  IC50: < 10 nM

## COc1ccc2nc3cc(Cl)ccc3c(NCCCN(CCCNc3c4ccc(Cl)cc4nc4ccc(OC)cc34)CC3OC(C)(C)OC3C3COC(C)(C)O3)c2c1 (stereo not drawn)
COLO 205 [1]
  IC50: 2190 nM
[2]
  IC50: 4680 nM
[3]
  IC50: 4730 nM
MOLT-4
  IC50: 60 nM

## COc1ccc2nc3cc(Cl)ccc3c(NCCCCN(CCCNc3c4ccc(Cl)cc4nc4ccc(OC)cc34)Cc3ccsc3)c2c1
COLO 205 [1]
  IC50: 250 nM
[2]
  IC50: 3590 nM
[3]
  IC50: 990 nM
MOLT-4
  IC50: < 10 nM

## COc1ccc2nc3cc(Cl)ccc3c(NCCCN(CCCNc3c4ccc(Cl)cc4nc4ccc(OC)cc34)Cc3cccc(OC)c3OC)c2c1
COLO 205 [1]
  IC50: 640 nM
[2]
  IC50: 620 nM
[3]
  IC50: 790 nM
MOLT-4
  IC50: 10 nM
Nucleic Acid
  SC50: 2 µM

## COc1ccc2nc3cc(Cl)ccc3c(NCCCN(CCCNc3c4ccc(Cl)cc4nc4ccc(OC)cc34)CC3COC(C)(C)O3)c2c1 (stereo not drawn)
COLO 205 [1]
  IC50: 5600 nM
[2]
  IC50: 3430 nM
[3]
  IC50: 6610 nM
MOLT-4
  IC50: < 10 nM

## COc1ccc2nc3cc(Cl)ccc3c(NCCCN(CCCNc3c4ccc(Cl)cc4nc4ccc(OC)cc34)Cc3ccco3)c2c1
COLO 205 [1]
  IC50: 240 nM
[2]
  IC50: 610 nM
[3]
  IC50: 840 nM
MOLT-4
  IC50: < 10 nM
Nucleic Acid
  SC50: 2 µM

## COc1cccc(CN(CCCNc2c3ccc(Cl)cc3nc3ccc(OC)cc23)CCCNc2c3ccc(Cl)cc3nc3ccc(OC)cc23)c1
COLO 205 [1]
  IC50: 350 nM
[2]
  IC50: 420 nM
[3]
  IC50: 680 nM
MOLT-4
  IC50: < 10 nM
Nucleic Acid
  SC50: 2 µM

## COc1ccc2nc3cc(Cl)ccc3c(NCCCN(CCCNc3c4ccc(Cl)cc4nc4ccc(OC)cc34)Cc3ccc(Br)o3)c2c1
COLO 205 [1]
  IC50: 410 nM
[2]
  IC50: 1110 nM
[3]
  IC50: 4240 nM
MOLT-4
  IC50: < 10 nM
Nucleic Acid
  SC50: > 20 µM

## COc1ccc2nc3cc(Cl)ccc3c(NCCCCNCCCNc3c4ccc(Cl)cc4nc4ccc(OC)cc34)c2c1
COLO 205 [1]
  IC50: 130 nM
[2]
  IC50: 330 nM
[3]
  IC50: 50 nM
MOLT-4
  IC50: < 20 nM
Nucleic Acid
  SC50: 4 µM

## COc1ccc2nc3cc(Cl)ccc3c(NCCCCN(CCCNc3c4ccc(Cl)cc4nc4ccc(OC)cc34)Cc3ccco3)c2c1
COLO 205 [1]
  IC50: 370 nM
[2]
  IC50: 4730 nM
[3]
  IC50: 5070 nM
MOLT-4
  IC50: 60 nM

## COc1ccc2nc3cc(Cl)ccc3c(NCCCN(CCCNc3c4ccc(Cl)cc4nc4ccc(OC)cc34)Cc3ccsc3)c2c1
COLO 205 [1]
  IC50: 560 nM
[2]
  IC50: 1410 nM
[3]
  IC50: 1170 nM
MOLT-4
  IC50: 70 nM

## COc1ccc2nc3cc(Cl)ccc3c(NCCCN(CCCNc3c4ccc(Cl)cc4nc4ccc(OC)cc34)Cc3ccoc3)c2c1
COLO 205 [6]
  inhibition in vivo at 10 mg/kg: 24%
[4]
  MTD: 10 mg/kg
COLO 205 [1]
  IC50: 460 nM
[2]
  IC50: 360 nM
[3]
  IC50: 690 nM
MOLT-4
  IC50: 10 nM
Nucleic Acid
  SC50: 2 µM

## COc1ccc2nc3cc(Cl)ccc3c(NCCCCN(CCCNc3c4ccc(Cl)cc4nc4ccc(OC)cc34)Cc3ccoc3)c2c1
COLO 205 [1]
  IC50: 320 nM
[2]
  IC50: 440 nM
[3]
  IC50: 710 nM
MOLT-4
  IC50: 30 nM

## COc1ccc2nc3cc(Cl)ccc3c(NCCCN(CCCNc3c4ccc(Cl)cc4nc4ccc(OC)cc34)Cc3ccccc3OC)c2c1
COLO 205 [1]
  IC50: 3610 nM
[2]
  IC50: 930 nM
[3]
  IC50: 710 nM
MOLT-4
  IC50: < 10 nM
Nucleic Acid
  SC50: 2 µM

## CCCCCCN(CCCNc1c2ccc(Cl)cc2nc2ccc(OC)cc12)CCCNc1c2ccc(Cl)cc2nc2ccc(OC)cc12
COLO 205 [1]
  IC50: 890 nM
[2]
  IC50: 6950 nM
[3]
  IC50: 6140 nM
MOLT-4
  IC50: 90 nM

## CCN(CCCNc1c2ccc(Cl)cc2nc2ccc(OC)cc12)CCCNc1c2ccc(Cl)cc2nc2ccc(OC)cc12
[4]
  MTD: 30 mg/kg
COLO 205 [1]
  IC50: 90 nM
[2]
  IC50: 5330 nM
[3]
  IC50: 7310 nM
MOLT-4
  IC50: < 20 nM

## CCc1ccc(CN(CCCNc2c3ccc(Cl)cc3nc3ccc(OC)cc23)CCCNc2c3ccc(Cl)cc3nc3ccc(OC)cc23)o1
COLO 205 [1]
  IC50: 2560 nM
[2]
  IC50: 3320 nM
[3]
  IC50: 5250 nM
MOLT-4
  IC50: 100 nM

## COc1ccc2nc3cc(Cl)ccc3c(NCCCN(CCCNc3c4ccc(Cl)cc4nc4ccc(OC)cc34)CCc3ccccc3)c2c1
COLO 205 [1]
  IC50: 700 nM
[2]
  IC50: 650 nM
[3]
  IC50: 680 nM
MOLT-4
  IC50: < 10 nM

## COc1ccc2nc3cc(Cl)ccc3c(NCCCCN(CCCNc3c4ccc(Cl)cc4nc4ccc(OC)cc34)Cc3cccs3)c2c1
COLO 205 [1]
  IC50: 500 nM
[2]
  IC50: 440 nM
[3]
  IC50: 680 nM
MOLT-4
  IC50: 40 nM

## COc1ccc2nc3cc(Cl)ccc3c(NCCCNCCCNc3c4ccc(Cl)cc4nc4ccc(OC)cc34)c2c1
COLO 205 [6]
  inhibition in vivo at 10 mg/kg: 80%
[4]
  MTD: 10 mg/kg
COLO 205 [1]
  IC50: 410 nM
[2]
  IC50: 330 nM
[3]
  IC50: 770 nM
MOLT-4
  IC50: < 20 nM
Nucleic Acid
  SC50: 4 µM

## COc1ccc2nc3cc(Cl)ccc3c(NCCCN(CCCNc3c4ccc(Cl)cc4nc4ccc(OC)cc34)Cc3cc(OC)c(OC)c(OC)c3)c2c1
COLO 205 [1]
  IC50: 4500 nM
[2]
  IC50: 4420 nM
[3]
  IC50: 5040 nM
MOLT-4
  IC50: 60 nM

## COc1ccc(CN(CCCCNc2c3ccc(Cl)cc3nc3ccc(OC)cc23)CCCNc2c3ccc(Cl)cc3nc3ccc(OC)cc23)cc1
COLO 205 [1]
  IC50: 390 nM
[2]
  IC50: 5450 nM
[3]
  IC50: 860 nM
MOLT-4
  IC50: 710 nM

## COc1cccc(CN(CCCCNc2c3ccc(Cl)cc3nc3ccc(OC)cc23)CCCNc2c3ccc(Cl)cc3nc3ccc(OC)cc23)c1
COLO 205 [1]
  IC50: 250 nM
[2]
  IC50: 5660 nM
[3]
  IC50: 1300 nM
MOLT-4
  IC50: 710 nM

## COc1ccc2nc3cc(Cl)ccc3c(NCCCN(CCCNc3c4ccc(Cl)cc4nc4ccc(OC)cc34)Cc3ccccc3)c2c1
COLO 205 [1]
  IC50: 750 nM
[2]
  IC50: 700 nM
[3]
  IC50: 700 nM
MOLT-4
  IC50: 700 nM
Nucleic Acid
  SC50: 2 µM
